We go through 15 compounds from US20240287070A1, “FUSED HETEROCYCLIC DERIVATIVES” (Janssen Sciences Ireland Unlimited Company, priority 2021, published 2024).

A value given as a limit tells only on which side of the number the result lay.

Data set [1] can be described thus: Cytotoxicity, ATPlite Luminescence Assay. It is filed as cell-based, human. The following applies: human, HepG2 or HepG2.117 cells, 3-days incubation unless marked with *. An outline of the steps:
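Incubate with compound for 3 or 4 days, then assess cell viability via ATPlite luminescence.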
Background: ATP-based viability assays read luminescence as a measure of living cells.

Data set [2] relates to HBV (HepG2.117 cell line, inducibly HBV producing). Kind of data set: Anti-HBV activity, intracellular HBV DNA by real-time PCR in HepG2.117 cell line. The class given is cell-based, hepatitis B virus. The following applies: HepG2.117 cells, 3 days of treatment. The essentials:
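First, HBV replication is induced in HepG2.117 cells by doxycycline absence. Next, serially diluted compound is added for 3 days. Finally, intracellular HBV DNA is quantified by HBV-specific real-time PCR.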

Data set [3] can be described thus: Human liver microsome stability. To be noted: 1 μM compound, NADPH 1 mM, 37° C., 0-60 min; for HLM Metabolism t1/2: pooled human liver microsomes 0.5 mg/mL; for half-life at 1 μM: human, pooled human liver microsomes, pH 7.4, pooled human liver microsomes 0.5 mg/mL, read-out: HLM Metabolism t1/2. It is filed as in vitro ADME. An outline of the steps: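 Half-life came from elimination rate constant (negative slope of ln compound/internal standard area ratio over time), measured by cassette LC-MS after acetonitrile quench. Human liver microsome reactions, one replicate per compound, were initiated with NADPH (1 mM final) and sampled at six points up to 60 min.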

Where [4] appears, read: Hepatitis B virus, HepG2.117, 72 h.

`CC(c1ccn(C(C)C)c(=O)c1)N1C[C@@H](C)n2nc3c(c2C1=O)CN(C(=O)c1ccc(Cl)c(C(F)(F)F)c1)[C@H](C)C3` (single isomer, unassigned) [Compound 47A, (3R,7R)-2-(4-chloro-3-(trifluoromethyl)benzoyl)-9-((R*)-1-(1-isopropyl-2-oxo-1,2-dihydropyridin-4-yl)ethyl)-3,7-dimethyl-1,2,3,4,8,9-hexahydropyrido[4′,3′:3,4]pyrazolo[1,5-a]pyrazin-10(7H)-one]: in data set [1], the CC50 (commonly the concentration that lowers cell viability or growth by half) at 3 days is over 50 µM. Also, the response in data set [2] was half-maximal at 0.068 µM (EC50). Besides, in data set [3], the “HLM Metabolism t1/2” value is 0.888 h.
In data set [1], `CC(C)Oc1cc(C(C)N2C[C@@H](C)n3nc4c(c3C2=O)CN(C(=O)c2ccc(Cl)c(C(F)(F)F)c2)[C@H](C)C4)ccn1` (single isomer, unassigned) [Compound 48A, (3R,7R)-2-(4-chloro-3-(trifluoromethyl)benzoyl)-9-((R*)-1-(2-isopropoxypyridin-4-yl)ethyl)-3,7-dimethyl-1,2,3,4,8,9-hexahydropyrido[4′,3′:3,4]pyrazolo [1,5-a]pyrazin-10(7H)-one] displayed a CC50 at 3 days of 22.1 µM. The EC50 – broadly, the midpoint of the concentration-response curve – in data set [2] (setting [4]) was found to be 0.052 µM. Further, the half-life at 1 μM in data set [3] amounted to 2.22 h.
In data set [1], `CC(c1ccn(C(F)F)c(=O)c1)N1C[C@@H](C)n2nc3c(c2C1=O)CN(C(=O)c1ccc(Cl)c(C(F)(F)F)c1)[C@H](C)C3` (single isomer, unassigned) [Compound 49A, (3R,7R)-2-(4-chloro-3-(trifluoromethyl)benzoyl)-9-((R*)-1-(1-(difluoromethyl)-2-oxo-1,2-dihydropyridin-4-yl)ethyl)-3,7-dimethyl-1,2,3,4,8,9-hexahydropyrido [4′,3′:3,4]pyrazolo[1,5-a]pyrazin-10(7H)-one] came in with a CC50 at 3 days of over 50 µM. In data set [2], this compound showed an EC50 of 0.041 µM. The “HLM Metabolism t1/2” value in data set [3] was found to be 1.32 h.
Take `CC(c1ccnc(OC(F)F)c1)N1C[C@@H](C)n2nc3c(c2C1=O)CN(C(=O)c1ccc(Cl)c(C(F)(F)F)c1)[C@H](C)C3` (single isomer, unassigned) [Compound 50A, (3R,7R)-2-(4-chloro-3-(trifluoromethyl)benzoyl)-9-((R*)-1-(2-(difluoromethoxy)pyridin-4-yl)ethyl)-3,7-dimethyl-1,2,3,4,8,9-hexahydropyrido[4′,3′:3,4]pyrazolo[1,5-a]pyrazin-10(7H)-one]: in data set [1], the CC50 at 3 days amounted to 12.5 µM. A half-maximal effect in data set [2] (EC50) was put at 0.066 µM. For the same compound, the half-life at 1 μM in data set [3] is over 3 h.
The compound `CC(c1ccn(CC(F)(F)F)c(=O)c1)N1C[C@@H](C)n2nc3c(c2C1=O)CN(C(=O)c1ccc(Cl)c(Cl)c1)[C@H](C)C3` (single isomer, unassigned) [Compound 51A, (3R,7R)-2-(3,4-dichlorobenzoyl)-3,7-dimethyl-9-((R*)-1-(2-oxo-1-(2,2,2-trifluoroethyl)-1,2-dihydropyridin-4-yl)ethyl)-1,2,3,4,8,9-hexahydropyrido[4′,3′:3,4]pyrazolo[1,5-a]pyrazin-10(7H)-one] registered a CC50 at 3 days in data set [1] of over 50 µM. In data set [2], this compound yielded an EC50 of 0.06 µM. Besides, in data set [3], the half-life at 1 μM is over 3 h.
Take `CC(c1cnn(C)c(=O)c1)N1C[C@@H](C)n2nc3c(c2C1=O)CN(C(=O)c1ccc(Cl)c(C(F)(F)F)c1)[C@H](C)C3` (single isomer, unassigned) [Compound 52A, (3R,7R)-2-(4-chloro-3-(trifluoromethyl)benzoyl)-3,7-dimethyl-9-((R*)-1-(1-methyl-6-oxo-1,6-dihydropyridazin-4-yl)ethyl)-1,2,3,4,8,9-hexahydropyrido [4′,3′:3,4]pyrazolo[1,5-a]pyrazin-10(7H)-one]: in data set [1], the CC50 at 3 days was over 50 µM. For the same compound, the EC50 in data set [2] is 0.12 µM. For the same compound, in data set [3], the “HLM Metabolism t1/2” value stood at 1.48 h.
On to `CC(c1cnn(C(C)C)c(=O)c1)N1C[C@@H](C)n2nc3c(c2C1=O)CN(C(=O)c1ccc(Cl)c(C(F)(F)F)c1)[C@H](C)C3` (single isomer, unassigned) [Compound 53A, (3R,7R)-2-(4-chloro-3-(trifluoromethyl)benzoyl)-9-((R*)-1-(1-isopropyl-6-oxo-1,6-dihydropyridazin-4-yl)ethyl)-3,7-dimethyl-1,2,3,4,8,9-hexahydropyrido[4′,3′:3,4]pyrazolo[1,5-a]pyrazin-10(7H)-one], for which the CC50 at 3 days in data set [1] was over 50 µM. In data set [2], this compound displayed an EC50 of 0.24 µM. The half-life at 1 μM in data set [3] was determined as 1.85 h.
For `CC(c1cnn(C2CC2)c(=O)c1)N1C[C@@H](C)n2nc3c(c2C1=O)CN(C(=O)c1ccc(Cl)c(C(F)(F)F)c1)[C@H](C)C3` (single isomer, unassigned) [Compound 54A, (3R,7R)-2-(4-chloro-3-(trifluoromethyl)benzoyl)-9-((R*)-1-(1-cyclopropyl-6-oxo-1,6-dihydropyridazin-4-yl)ethyl)-3,7-dimethyl-1,2,3,4,8,9-hexahydropyrido[4′,3′: 3,4]pyrazolo[1,5-a]pyrazin-10(7H)-one], in that order: over 50 µM, 0.16 µM and 1.29 h.
As to `CC(c1ccc(=O)n(C)n1)N1C[C@@H](C)n2nc3c(c2C1=O)CN(C(=O)c1ccc(Cl)c(Cl)c1)[C@H](C)C3` (single isomer, unassigned) [Compound 55A, (3R,7R)-2-(3,4-dichlorobenzoyl)-3,7-dimethyl-9-((R*)-1-(1-methyl-6-oxo-1,6-dihydropyridazin-3-yl)ethyl)-1,2,3,4,8,9-hexahydropyrido[4′,3′:3,4]pyrazolo[1,5-a]pyrazin-10(7H)-one], the CC50 at 3 days in data set [1] is over 50 µM. In data set [2] (setting [4]), the EC50 was found to be 0.051 µM. Also, the half-life at 1 μM in data set [3] was over 3 h.
`CC(c1cn(C2CC2)c(=O)cn1)N1C[C@@H](C)n2nc3c(c2C1=O)CN(C(=O)c1ccc(Cl)c(Cl)c1)[C@H](C)C3` (single isomer, unassigned) [Compound 56A, (3R,7R)-9-((R*)-1-(4-cyclopropyl-5-oxo-4,5-dihydropyrazin-2-yl)ethyl)-2-(3,4-dichlorobenzoyl)-3,7-dimethyl-1,2,3,4,8,9-hexahydropyrido[4′,3′:3,4]pyrazolo[1,5-a]pyrazin-10(7H)-one] displayed a CC50 at 3 days in data set [1] of over 50 µM. In data set [2], this compound had an EC50 of 0.29 µM. Further, in data set [3], the half-life at 1 μM was over 3 h.
On the same counts, the results for `CC(c1ccc(C(C)(C)O)nc1)N1C[C@@H](C)n2nc3c(c2C1=O)CN(C(=O)c1cc(Cl)c(Cl)cn1)[C@H](C)C3` (single isomer, unassigned) [Compound 57A, (3R,7R)-2-(4,5-dichloropicolinoyl)-9-((R*)-1-(6-(2-hydroxypropan-2-yl)pyridin-3-yl)ethyl)-3,7-dimethyl-1,2,3,4,8,9-hexahydropyrido[4′,3′:3,4]pyrazolo[1,5-a]pyrazin-10(7H)-one] are over 50 µM, over 2.5 µM and over 3 h.
`CC(c1ccc(C(C)(C)O)nc1)N1C[C@@H](C)n2nc3c(c2C1=O)CN(C(=O)c1cc(C(F)(F)F)c(Cl)cn1)[C@H](C)C3` (single isomer, unassigned) [Compound 58A, (3R,7R)-2-(5-chloro-4-(trifluoromethyl)picolinoyl)-9-((R*)-1-(6-(2-hydroxypropan-2-yl)pyridin-3-yl)ethyl)-3,7-dimethyl-1,2,3,4,8,9-hexahydropyrido[4′,3′:3,4]pyrazolo[1,5-a]pyrazin-10(7H)-one] had a CC50 at 3 days in data set [1] of over 50 µM. The EC50 in data set [2] was over 2.5 µM. The half-life at 1 μM in data set [3] was over 3 h.
For `CC(c1ccc(C(C)(C)O)nc1)N1C[C@@H](C)n2nc3c(c2C1=O)CN(C(=O)c1ccc(Cl)c(F)c1)[C@H](C)C3` (single isomer, unassigned) [Compound 59A, (3R,7R)-2-(4-chloro-3-fluorobenzoyl)-9-((R*)-1-(6-(2-hydroxypropan-2-yl)pyridin-3-yl)ethyl)-3,7-dimethyl-1,2,3,4,8,9-hexahydropyrido[4′,3′:3,4]pyrazolo[1,5-a]pyrazin-10(7H)-one], in data set [1], the cytotoxic concentration (CC50) at 3 days was over 50 µM. The compound also registered an EC50 in data set [2] of 0.51 µM. In data set [3], the half-life at 1 μM was over 3 h.
For `CC(c1ccc(C(C)(C)O)nc1)N1C[C@@H](C)n2nc3c(c2C1=O)CN(C(=O)c1cc(F)c(Cl)c(F)c1)[C@H](C)C3` (single isomer, unassigned) [Compound 60A, (3R,7R)-2-(4-chloro-3,5-difluorobenzoyl)-9-((R*)-1-(6-(2-hydroxypropan-2-yl)pyridin-3-yl)ethyl)-3,7-dimethyl-1,2,3,4,8,9-hexahydropyrido[4′,3′:3,4]pyrazolo[1,5-a]pyrazin-10(7H)-one], in that order: over 50 µM, 0.3 µM and over 3 h.
For `CC(c1ccc(C(C)(C)O)nc1)N1C[C@@H](C)n2nc3c(c2C1=O)CN(C(=O)c1ccc(Cl)c(F)c1F)[C@H](C)C3` (single isomer, unassigned) [Compound 61A, (3R,7R)-2-(4-chloro-2,3-difluorobenzoyl)-9-((R*)-1-(6-(2-hydroxypropan-2-yl)pyridin-3-yl)ethyl)-3,7-dimethyl-1,2,3,4,8,9-hexahydropyrido[4′,3′:3,4]pyrazolo[1,5-a]pyrazin-10(7H)-one], in that order: over 50 µM, 2.34 µM and over 3 h.
